Common to all, as to assay type: cell-based, human
The test system of one series is HD-56CAG gastruloids. Nature of the series: HD gastruloid SOX17+ area rescue. The note with it: 1 μM; 48 hrs CHIR and Activin. The method, then:
BRD inhibitors were tested to determine whether they were able to rescue another HD phenotype in human gastruloids. When human embryonic stem cell colonies are stimulated for 48 hrs with CHIR and Activin a primitive-streak like population, SOX17+, is induced at the periphery (see FIG. 12a). Moreover, in HD gastruloids made from the HD-56CAG cells, the SOX17+ domain at the periphery is greatly expanded. This effect is even more pronounced when using a null HTT−/− cell line, which supports the findings that the HD mutation is in fact a loss of function mutation in a developmental context, as it phenocopies the absence of the protein.
Gastruloid induction: Using the protocol for coating micropatterned chips. after the final wash in PBS+/+, 8×10^5 cells were seeded on each coverslip in a defined volume of MEF-CM supplemented with 20 ng/ml bFGF (R&D Systems), 10 μM ROCK inhibitor (Y-27632, Abcam), 1× Penicillin-streptomycin (Thermo Fisher Scientific), 100 μg/ml Normocin (Invivogen) and left unperturbed for 10 minutes to ensure homogenous distribution across the patterns. ROCK inhibitor was removed from the medium 3 hours after seeding and cells were induced the following day with 50 ng/ml BM P4 (R&D Systems), 2 μM IWP2 (Stemgent), 6 μM CHIR99021 (EMD Millipore), 100 ng/ml ACTIVIN (R&D Systems) and small molecule treatments. Samples were fixed 48 hours later and analyzed by immunofluorescence.

For series [1], the system named is HD-56CAG neuruloids. Nature of the series: HD neuruloid phenotype reversal (AI-scored phenotypic rescue). The note with it: for rescue of HD neuruloids to the WT configuration: FIG. 10; for rescue of HD neuruloids to the WT configuration / rescue of HD neuruloid phenotype, primary screen images: qualitative; for hit call in panel of BRD inhibitors (rescue efficacy above and toxicity below threshold): single concentration of 10 μM, 96 well plates, same hit criteria as primary screen; for rescue of HD neuruloid phenotype, primary screen images: 10 μM, staining DAPI, PAX6, phalloidin. How it is done:
Micropatterned cell culture on chips and neuruloid induction: Micropatterned glass coverslips (CYTOOCHIPS Arena A, Arena 500A, Arena EMB A) were first coated with 10 μg ml^−1 recombinant Laminin-521 (BioLamina, LN521-03) diluted in PBS+/+(Gibco) for 3 h at 37° C. Micropatterns were placed face-up onto a Parafilm that was seated in a 10 cm dish, then 800 μl of laminin solution was added to the micropattern. After 3 h at 37° C., the coated micropattern was transferred to a 35 mm dish with 5 ml of PBS+/+. Laminin was removed with six serial dilutions in PBS+/+(dilution 1:4) before two complete washes in PBS+/+. Then the coated micropattern was kept in PBS+/+ at 37° C. Cells were seeded as follows: cells growing in MEF-CM on culture dish were washed once with PBS−/− (Gibco), then treated with accutase (Stem Cell Technologies) for 5 min. Cells were then triturated with a pipette to ensure single cell suspension and accutase was diluted out with 4× HUESM medium supplemented with 20 ng ml^−1 bFGF and ROCK inhibitor, Y27632 (10 μM; Abcam ab120129). Cells were further diluted with the same medium and 5×10^5 (or as indicated) cells in 3.0 ml of medium were placed over the micropattern in a 35-mm tissue culture dish, then incubated at 37° C. After 3 h, the micropattern in a dish was washed once with PBS+/+. For SB+LDN condition: PBS+/+ was replaced with 3 N medium73 with 10 μM SB431542 (Stemgent 04-0010-10) and 0.2 μM LDN 193189 (Stemgent 04-0019). At days 3 and 5, the medium was replaced with the same fresh medium and incubated at 37° C. until day 7. For SB+BM P4 condition (neuruloid), PBS was replaced with HUESM with 10 μM SB431542 and 0.2 μM LDN 193189. At day 3, the medium was replaced with HUESM with 10 μM SB431542 and BM P4 (50 ng ml^−1 or indicated each experiment). At day 5, the medium was replaced with the same fresh medium then incubated until day 7.
(§1) Micropatterned cell culture on 96 well plates and imaging: The micropatterned cell culture on chips and neuruloid induction protocol was used with micropatterned 96 well plates (CYTOOPLATES Arena A, Arena 700). The neuruloid induction was modified so that all steps requiring media changes, cell dispensing as well as washes and incubations for immunofluorescence were performed with a EL406 washer/dispense robot. For cell seeding, a volume of 200 μl cell suspension at a density of 0.18M cells per ml was used. Plate imaging was performed with an InCell Analyzer 2000 high-content imager through a 4× lens.
(§2) A number of libraries consisting of 2080 compounds were screened in 96 well plates with micropatterned glass bottoms. In these plates, each well has around 27 individual neuruloids. During the screen, two plates of WT controls and two plates of HD untreated controls were reserved in order to have enough control data for training the deep neural network for later analysis. Compounds were applied to the test plates at day 0 of differentiation and re-applied at day 3 and day 5 during media change steps. Each compound was applied in a unique well, at a unique concentration of 10 uM. At day 7, plates were fixed and stained for DAPI, PAX6 and Phalloidin. After staining, plates were imaged and individual neuruloids in every well were segmented and labeled before being fed to the specific deep neural network.
Image analysis: image tiles acquired from micropatterned or plate culture experiments were stitched and background-corrected. A foreground mask was created to detect colonies by thresholding the DAPI channel and calculating alpha shapes in respect to colony size. Each detected colony was extracted from the corrected and stitched image.
Deep learning for quantification of phenotypic rescue: Multichannel WT and disease organoid images are split into training (70%) and validation (30%) images. A neural network (NN) is then trained on the training data set. The NN is coded using a machine-learning framework such as Pytorch. […]

In series [2] the test system is expanded HTT and total HTT. Nature of the series: HTT levels in HD neuruloid lysates, ELISA-based meso scale discovery (MSD) electrochemiluminescence assay. The note with it: for HTT levels reduction ability (expanded HTT and total HTT): 1 μM and 5 μM, versus DMSO control. How it is done:
We therefore repeated our protocol for the formation of HD neuruloids in two genetic backgrounds: 56CAG and 72CAG and treated with the 5 BRD inhibitors disclosed in FIG. 9 at two concentrations: 1 uM and 5 uM. At the end of the differentiation protocol, neuruloids lysates were frozen and later analyzed for their HTT contents. Both expanded HTT levels and total HTT levels (expanded+regular) were quantified through ELISA-based meso scale discovery (MSD) electrochemiluminescence assay.
HD neuruloids were created in two genetic backgrounds: 56CAG and 72CAG; and treated with the 5 BRD inhibitors disclosed in FIG. 10 at two concentrations: 1 μM and 5 μM. At the end of the differentiation protocol, neuruloid lysates were analyzed for their HTT contents. Both expanded HTT levels and total HTT levels (expanded+regular) were quantified through ELISA-based meso scale discovery (MSD) electrochemiluminescence assay.
(In general: In an ELISA, binding on a coated surface is turned into a signal by an enzyme label.)

The subject of series [3] is HD-56CAG neuruloids. Nature of the series: HD neuruloid phenotype reversal (AI-scored phenotypic rescue). As to conditions: for potency (EC50) in rescuing HD neuruloids: dose-dependent test of BRD9 inhibitors, FIG. 9A.
Series [4] has as its system WT-20CAG and HD-56CAG neuruloids. Nature of the series: Neuruloid toxicity (autoencoder-based toxicity score). How it is done: as §1, §2
Deep learning for quantification of cytotoxicity: An autoencoder based method was used to asses toxicity. These unsupervised neural networks encode data and compress it in a low dimensional latent representation. The unsupervised nature of this machine learning method has the advantage that the autoencoder learns a representation of the data without any additional information about the data (such as that it is derived from wild type or disease cell lines), and is thus unbiased in estimating the toxicity of compounds. The representation of the data in terms of vectors also has the advantage that differences in the wild type and disease phenotype can be removed from the vector space, since this difference is not relevant in determining toxicity. Toxicity was determined in the following way: First, the difference between wild type and disease is removed from the latent space. Then, the distance from the mean vector of the wild type and disease phenotypes is calculated, and compared to the standard deviation of the wild type and disease phenotypes. This distance is defined as the toxicity.

The results in this text go back to US20230149373A1, “USE OF BROMODOMAIN INHIBITORS FOR TREATMENT OF HUNTINGTON'S DISEASE” (RUMI SCIENTIFIC HOLDINGS, INC., priority 2020, published 2023).

“Also recorded” adds a separate entry of the source.

`COc1cc(-c2cn(C)c(=O)c3cnccc23)cc(OC)c1CN(C)C` [BI-7273]: the “SOX17+ area at the periphery of HD gastruloids” value (from here on “SOX17+ area at the periphery”) in the series with HD-56CAG gastruloids is listed as “significant reduction of the SOX17+ area”. Besides, in the series with HD-56CAG neuruloids [1], the “rescue of HD neuruloids to the WT configuration” value (“rescue of HD neuruloids” for short) is “rescue HD neuruloids to the WT configuration”. In addition, in the series on HD-56CAG neuruloids [1] (listed as B17273), the “hit call in panel of BRD inhibitors (rescue efficacy above and toxicity below threshold)” value was “high enough efficacy while keeping a low toxicity and scores positively and hit”. Moreover, in series [2] (56CAG and 72CAG neuruloids), the “HTT levels reduction ability (expanded HTT and total HTT)” value (from here on “HTT levels reduction ability”) is “no HTT reduction ability”. For the same molecule, the “potency (EC50) in rescuing HD neuruloids” value with HD-56CAG neuruloids [3] is on record as “sub-micromolar”.
Take `COc1cc(-c2cn(C)c(=O)c3cnccc23)c(OC)cc1CN(C)C` [BI-9564]: in the series with HD-56CAG neuruloids [1], the “rescue of HD neuruloids” value is “rescue HD neuruloids to the WT configuration”; the “hit call in panel of BRD inhibitors (rescue efficacy above and toxicity below threshold)” value was “did not score positively”. Moreover, the “HTT levels reduction ability” value in series [2] (56CAG and 72CAG neuruloids) is listed as “no HTT reduction ability”. Also, the “potency (EC50) in rescuing HD neuruloids” value in the series on HD-56CAG neuruloids [3] is given as “sub-micromolar”.
With `CCOC(=O)Nc1cc(-c2ccc(C)c(NS(C)(=O)=O)c2)nn2c(C)nnc12` [Bromosporine], in the series on HD-56CAG gastruloids, the “SOX17+ area at the periphery” value is given as “significant reduction of the SOX17+ area”. Further, the “rescue of HD neuruloid phenotype, primary screen images” value is “reversal of the HD phenotype towards the WT configuration” in the series on HD-56CAG neuruloids [1] and “rescues the HD neuruloids phenotype” in the series on HD-56CAG neuruloids [1] (listed as bromosporine). Moreover, the “rescue of HD neuruloids” value in the series on HD-56CAG neuruloids [1] is listed as “rescue HD neuruloids to the WT configuration”. Also, the phenotypic rescue with HD-56CAG neuruloids [1] (primary screen, 10 uM, HD neuruloids, AI score 0 = disease, 1 = WT, hit >0.95) stood at 0.98. For the same molecule, the “HTT levels reduction ability” value in series [2] (56CAG and 72CAG neuruloids) is “reduced both expanded HTT and total HTT levels; also recorded: has HTT lowering activity”. The “reduction of expanded HTT levels” value in series [2] (1 μM, 56CAG and 72CAG neuruloids) is recorded as “more than 50%”; in series [2] (5 μM, all backgrounds (56CAG and 72CAG neuruloids)), “more than 75%”. Moreover, in the series on HD-56CAG neuruloids [3] (0.5 μM, staining SOX10, PAX6, N-CAD, qualitative), the “rescue of HD phenotype, hit validation in small-scale experiment” value was “rescue of the disorganization induced by the HD gene; also recorded: rescued the HD phenotype”. In the series on HD-56CAG neuruloids [3] (Homo sapiens, dose response, 10 concentrations in triplicates, read-out: EC50 rescuing the neuruloids HD-56CAG phenotype), the EC50 was 120 nM. Further, in the series on HD-56CAG neuruloids [3] (dose response, HD neuruloids), the “concentration at which fully effective” value is “around 300 nM”. Further, the “potency (EC50) in rescuing HD neuruloids” value with HD-56CAG neuruloids [3] is “sub-micromolar”. In addition, the “concentrations at which a toxic response started to occur” value in series [4] (WT and HD-56CAG neuruloids) was “above 1 μM”. Also, the “toxicity in the window of concentration” value in series [4] (between 0.3 μM and 1 μM) is reported as “low toxicity”. Moreover, the toxicity score in series [4] (primary screen, 10 uM, HD neuruloids, toxic signature >3) is 1.93.
As to `CCn1cc(-c2cccc(C(F)(F)F)c2)c2sc(C(=N)NC3CCS(=O)(=O)CC3)cc2c1=O` [I-BRD9], in the series on HD-56CAG neuruloids [1], the “rescue of HD neuruloids” value was “rescue HD neuruloids to the WT configuration”. Further, the “potency (EC50) in rescuing HD neuruloids” value in the series on HD-56CAG neuruloids [3] is given as “sub-micromolar”.
As to `COc1cc(-c2cn(C)c(=O)c3cnccc23)cc(OC)c1CN(C)CC(=O)NCCOCCOCCNc1cccc2c1C(=O)N(C1CCC(=O)NC1=O)C2=O` (stereo not shown) [dBRD9], the “SOX17+ area at the periphery” value in the series with HD-56CAG gastruloids was “significant reduction of the SOX17+ area”. In addition, in the series on HD-56CAG neuruloids [1], the “rescue of HD neuruloids” value is reported as “rescue HD neuruloids to the WT configuration”. The “HTT levels reduction ability” value in series [2] (56CAG and 72CAG neuruloids) is given as “no HTT reduction ability”. Moreover, the “potency (EC50) in rescuing HD neuruloids” value in the series on HD-56CAG neuruloids [3] was “sub-micromolar”. The “toxic profile relative to Bromosporine” value in series [4] (dose-dependent test, FIG. 9B) is reported as “lower than Bromosporine”.

By EC50 is commonly meant the midpoint of the concentration-response curve.
